This is an account of results in patent US9689040B2, “Selective inhibitors of tumor-initiating cells” (Children's Medical Center Corporation, priority 2011, dated 2017).

The structures appear in SMILES notation.

The test system of experiment [1] is epithelial TNBC / basal-like cells (MB-468, HCC-1143, HCC-1937, 4T1-E). Put plainly: cells. Particulars: 24 h, read-out: decrease of cell viability.
Another experiment has as its target proteasome (Homo sapiens, UniProt P28074). As to the kind of experiment: Proteasome activity in BPLER and HMLER cells (ProteaGlo assay). Particulars: 6 hr after treatment.
Another experiment relates to Noxa, PARP1. Put plainly: Immunoblot of Noxa induction and PARP cleavage in breast cell lines. Format: cell-based, human. Particulars: for Noxa protein induction: 12.5 nM, 24 hours. The protocol: Immunoblot was performed as described^41. Primary antibodies were as follows: cleaved Caspase 3 (Cell Signaling, rabbit polyclonal, 1:1000), PARP1 (Santa Cruz, rabbit polyclonal, 1:500), MCL1 (Cell Signaling, Rabbit polyclonal, 1:1000), Bim (Santa Cruz, rabbit polyclonal, 1:500), Bik (Cell Signaling, rabbit polyclonal, 1:1000), Puma (Cell Signaling, rabbit polyclonal, 1:1000), Noxa (Calbiochem, mouse monoclonal, 1:500), Bid (Santa Cruz, rabbit polyclonal, 1:500), Bad (Santa Cruz, rabbit polyclonal, 1:500). Antibodies were diluted in 5% milk in TBS-T and incubated O.N. at 4° C. Secondary mouse and rabbit HRP-conjugated antibodies were from Amersham. Protein signal was detected using the ECL Plus kit (Amersham). For flow cytometry, cells were stained as previously described^33, using the following fluorescent-conjugated antibodies: CD44 (BD Biosciences), CD24 (BD Biosciences), CD326 (ESA, Biolegend), Annexin V (Invitrogen). For immunofluorescence microscopy, cells were fixed in 2% PFA for 10 min, permeabilized with 1% Triton X in PBS for 5 min, and incubated with primary antibodies in 0.5% Triton X, 1% FBS in PBS for 30 min at RT. Antibodies were: CK18 (Santa Cruz, mouse monoclonal, 1:100) and CK14 (Millipore, mouse monoclonal, 1:100). After washing the cells were stained sequentially with AlexaFluor647-conjugated secondary antibody (Invitrogen, 1:200) and DAPI (Sigma, 1:5000). For immunohistochemistry, BPLER tumor sections were prepared from paraffin-embedded tissues, deparaffinized and treated with 10% citrate buffer for 15 min.
A general note: In western blotting, separated proteins are transferred to a membrane and probed.

Experiment [2] relates to BPE, HMLER and BPLER cells. Put plainly: Cell cycle distribution (propidium iodide DNA staining).
In the next experiment the test system is BPLER tumors. Put plainly: BPLER tumor xenografts in Nu/J mice (tumor volume, tumor weight). Type of experiment: in vivo, mouse. The procedure:
We first assessed the effect of bortezomib on pre-established subcutaneous BPLER xenografts in nude mice. […] To reduce experimental variability, we selected mice bearing tumors of homogenous size (˜[…] in diameter after 3 weeks from injection), which were randomized into two groups. Each group received 6 doses of either vehicle (DMSO) or bortezomib at 0.5 mg/kg i.p. q3d over a 16-day period, respectively. At the end of the treatment period, mice were sacrificed and tumor weight was assessed.
Bortezomib is already in the clinic for treatment of multiple myeloma and other lymphomas. To start investigating potential clinical efficacy in TNBC, BPLER tumor-bearing mice were given 1 dose (0.8 mg/kg) of bortezomib intratumorally (i.t.), intraperitoneally (i.p) or intravenously (i.v.) and proteasome activity in the tumor was assessed after 18 hours (FIG. 6A). […] To assess therapeutic efficacy, we administered bortezomib every 3 days (0.8 mg/kg i.t.) or weekly (1.6 mg/kg i.v.) after BPLER tumors, implanted in the flank of Nu/J mice, became palpable. BPLER tumor outgrowth was assessed by tumor volume during the treatment period and by tumor weight at the time of sacrifice.
All animal procedures were performed with IACUC approval. Exponentially growing cells were trypsinized with TRYPLE EXPRESS (Invitrogen), resuspended in a 1:1 WIT-Matrigel solution at the indicated numbers, and injected subcutaneously in the flank of 4-week old female Nu/J mice (Stock #002019, Jackson Laboratories). […] Mice were sacrificed 16 days after beginning treatment and tumor weight was assessed.

In the next experiment the test system is MB-468 tumors. Put plainly: MB-468 tumor-bearing mice. Format: in vivo, mouse. The conditions noted are these: intratumoral or intravenous regimen, 45 days.

proteasome, sequence (P28074 60-263): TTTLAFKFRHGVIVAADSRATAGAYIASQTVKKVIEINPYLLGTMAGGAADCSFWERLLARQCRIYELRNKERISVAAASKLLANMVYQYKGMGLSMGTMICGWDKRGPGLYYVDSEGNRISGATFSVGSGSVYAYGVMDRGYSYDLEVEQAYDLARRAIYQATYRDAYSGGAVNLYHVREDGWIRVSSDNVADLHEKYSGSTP
Experimental for MB-468 tumors: (6G) Mean tumor volume in MB-468 tumor-bearing mice after intravenous treatment with 1.6 mg/kg bortezomib weekly.
Mean tumor volume in MB-468 tumor-bearing mice upon intratumoral infusion of bortezomib (0.8 mg/kg) or DMSO q3d.
Treatment was started once mice developed palpable tumors.

With `CC(C)C[C@H](NC(=O)[C@H](Cc1ccccc1)NC(=O)c1cnccn1)B(O)O` [bortezomib], the cytotoxicity at 0.0125 µM in experiment [1] lay within 50 to 65%. Also, the “proteasomal activity in BPLER and HMLER” value at proteasome is recorded as “similarly inhibited proteasome activity”. For the same compound, the Noxa protein induction result is recorded as “only weakly” with Noxa, PARP1 (BPE, MCF7 and T47D); “strongly induced Noxa protein” in the experiment on Noxa, PARP1 (all TNBC cell lines tested). Moreover, in the experiment on Noxa, PARP1 (BPLER cells), the Noxa protein level entry is on record as “highly increased”. Besides, the PARP cleavage result in the experiment with Noxa, PARP1 (HCC1143 and HCC1937 cells) is listed as “induced PARP cleavage”; in the experiment with Noxa, PARP1 (MCF7 or MDA-MB-436 cells) it was “not in MCF7 or MDA-MB-436 cells”. The cell cycle distribution entry in experiment [2] (BPE cells, 24 hours) is on record as “underwent G2/M arrest”; in experiment [2] (BPLER cells, low dose), “did not undergo cell cycle arrest”; in experiment [2] (HMLER cells, low dose), “underwent G2/M arrest”. Also, the “reduction of median tumor weight” value in the experiment with BPLER tumors (0.5 mg/kg i.p. q3d, 6 doses, after 16 days) is recorded as 54%. Also, the “tumors smaller than in control mice (tumor volume, average)” value with BPLER tumors (0.8 mg/kg i.t. every 3 days) is on record as 85%; in the experiment on BPLER tumors (1.6 mg/kg i.v. weekly), 59%. For the same compound, the “tumors weighed less than in control mice (average)” value with BPLER tumors (0.8 mg/kg i.t. every 3 days) turned out to be 91%; in the experiment on BPLER tumors (1.6 mg/kg i.v. weekly), 63%. In the experiment on BPLER tumors (immunohistochemistry and western blot), the “Noxa induction and caspase 3 cleavage in tumors” value was “induced Noxa induction and caspase 3 cleavage in vivo”. Further, in the experiment with MB-468 tumors, the “tumors smaller compared to control mice” value is recorded as “at least 6 fold”.
